Experimental findings from ChEMBL document CHEMBL1124923, “A novel, nonsteroidal inhibitor of androgen binding to the rat androgen binding protein: diethyl [[[3-(2,6-dimethyl-4-pyridinyl)-4-fluorophenyl]amino]methylene] propanedioate” (J Med Chem, 1990) are described below.

The first assay addresses T1, Sex hormone-binding globulin (Homo sapiens) (UniProt P04278).
T1 sequence (whole entry): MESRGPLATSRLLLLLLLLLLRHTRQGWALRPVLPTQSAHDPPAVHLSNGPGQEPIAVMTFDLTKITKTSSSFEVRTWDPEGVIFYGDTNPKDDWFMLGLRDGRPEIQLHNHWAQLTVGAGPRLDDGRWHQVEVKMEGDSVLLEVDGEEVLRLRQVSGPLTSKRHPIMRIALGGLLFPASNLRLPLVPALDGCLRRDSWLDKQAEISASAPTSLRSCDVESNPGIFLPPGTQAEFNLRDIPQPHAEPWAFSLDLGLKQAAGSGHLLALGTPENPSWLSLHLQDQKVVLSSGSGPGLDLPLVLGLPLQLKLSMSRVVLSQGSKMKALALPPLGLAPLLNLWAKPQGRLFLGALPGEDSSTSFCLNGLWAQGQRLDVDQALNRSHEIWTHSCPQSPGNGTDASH
Put plainly: In vitro relative binding affinity against hSHBG (human sex hormone binding globulin).
On to `CCOC(=O)C(/C=N/c1cccc(-c2cc(C)nc(C)c2)c1)=C(\O)OCC`, for which the relative binding affinity (RBA) was less than 0.01.

For `Cc1cc(-c2ccccc2F)cc(C)n1`, the relative binding affinity (RBA) is less than 0.01.

The compound `Cc1cc(-c2cc([N+](=O)[O-])ccc2F)cc(C)n1` yielded a relative binding affinity (RBA) of less than 0.01. Same read-out and setting: next, `CCOC(=O)C(/C=N/c1ccc(F)c(-c2cc(C)nc(C)c2)c1)=C(/O)OCC`: less than 0.01. Still for that read-out and setting: to `Cc1cc(-c2cc(N)ccc2F)cc(C)n1` belongs less than 0.01; to `C[C@]1(O)CC[C@H]2[C@@H]3CCC4=CC(=O)CCC4=C3C=C[C@@]21C` [METRIBOLONE], 0.2.

On to `Cc1cc2c(c(C)n1)c(=O)oc1ccccc12`, for which the relative binding affinity (RBA) is less than 0.01.

For the next assay, the target named is T2, Sex hormone-binding globulin (Rattus norvegicus, UniProt P08689).
T2 sequence (P08689 whole entry): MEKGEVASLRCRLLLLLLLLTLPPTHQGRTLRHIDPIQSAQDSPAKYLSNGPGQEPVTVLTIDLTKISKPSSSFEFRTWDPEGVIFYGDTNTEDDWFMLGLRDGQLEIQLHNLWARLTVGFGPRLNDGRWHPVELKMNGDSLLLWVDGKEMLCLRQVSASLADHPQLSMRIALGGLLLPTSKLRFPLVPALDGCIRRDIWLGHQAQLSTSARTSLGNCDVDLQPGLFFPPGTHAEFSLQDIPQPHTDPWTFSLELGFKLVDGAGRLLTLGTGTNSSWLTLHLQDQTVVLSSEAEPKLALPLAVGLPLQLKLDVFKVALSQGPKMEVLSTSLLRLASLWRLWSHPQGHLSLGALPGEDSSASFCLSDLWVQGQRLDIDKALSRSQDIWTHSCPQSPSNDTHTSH
Put plainly: Inhibition of rat androgen binding protein (rABP) (n=9).
The compound `C[C@]1(O)CC[C@H]2[C@@H]3CCC4=CC(=O)CCC4=C3C=C[C@@]21C` [METRIBOLONE] had an IC50 of 3.7 nM.
